Common to all, as to format: cell-based
In one experiment the target is human GcgR (Homo sapiens, UniProt P47871). Put plainly: Functional cAMP activity in the presence of 1% HSA. To be noted: read-out: cAMP Rel EC50, hGcgR.
Experiment [1] concerns the target T1, hGIPR (Homo sapiens, UniProt P48546).
T1 sequence (P48546 22-466): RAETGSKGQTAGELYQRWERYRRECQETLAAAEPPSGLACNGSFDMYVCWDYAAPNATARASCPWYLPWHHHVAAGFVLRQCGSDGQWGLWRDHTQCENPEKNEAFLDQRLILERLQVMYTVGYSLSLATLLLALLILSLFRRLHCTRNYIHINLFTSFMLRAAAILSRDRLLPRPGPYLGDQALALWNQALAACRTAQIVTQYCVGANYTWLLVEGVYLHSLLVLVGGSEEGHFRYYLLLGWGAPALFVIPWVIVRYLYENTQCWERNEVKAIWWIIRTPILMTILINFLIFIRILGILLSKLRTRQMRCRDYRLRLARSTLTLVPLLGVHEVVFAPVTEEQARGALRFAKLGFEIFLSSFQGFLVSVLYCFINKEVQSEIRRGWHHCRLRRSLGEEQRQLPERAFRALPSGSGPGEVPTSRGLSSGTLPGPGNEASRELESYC
Put plainly: Functional cAMP activation in the presence of 0.1% casein (no HSA). To be noted: read-out: Relative cAMP EC50, hGIPR.

A further experiment deals with hGcgR (Homo sapiens, UniProt P47871). The experiment is described as above. Particulars: read-out: Relative cAMP EC50, hGcgR.
Experiment [2] concerns the target T2, hGLP-1R (Homo sapiens, UniProt P43220). The description is as above. To be noted: read-out: Relative cAMP EC50, hGLP-1R.
For experiment [3], the target named is T2, hGLP-1R. Put plainly: Functional cAMP activity in the presence of 1% HSA. To be noted: read-out: cAMP Rel EC50, hGLP-1R.
Experiment [4] addresses T1, hGIPR. Put plainly: Functional cAMP activity in the presence of 1% HSA. To be noted: read-out: cAMP Rel EC50, hGIPR.
[5] abbreviates: in the presence of 0.1% casein (no HSA), geometric mean.

Like-named read-outs stand apart in the source and are kept apart here. Starred links: 1 amine or outer side, 2 acyl side, 3 side chain; linkers in the order of their positions; H or OH if unused. Non-standard residues stand in square brackets, D forms with d. Residues, ends and D or L forms follow the SMILES beside them. Groups on a side chain read outwards from the residue. No end group written: not given here. *: point of attachment. C18 diacid = O=C(O)CCCCCCCCCCCCCCCCC(=O)*; αMePhe(2-F) = C[C@](N)(Cc1ccccc1F)C(=O)O; γGlu = O=C(O)[C@H](CCC(=O)[*:2])N[*:1]; αMe4Pal = C[C@](N)(Cc1ccncc1)C(=O)O; αMeY = C[C@](N)(Cc1ccc(O)cc1)C(=O)O; 4Pal = N[C@@H](Cc1ccncc1)C(=O)O; αMeL = CC(C)C[C@](C)(N)C(=O)O; αMeS = C[C@](N)(CO)C(=O)O; Orn = NCCC[C@H](N)C(=O)O; AEEA = NCCOCCOCC(=O)O; Aib = CC(C)(N)C(=O)O

For orientation: EC50 means the concentration giving half of the maximal effect.
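Wherever Relative cAMP EC50, hGIPR is given: intracellular cAMP rise after 30 min at 37 °C read by HTRF against a standard curve, scaled between buffer alone (0%) and top control ligand concentration (100%), four-parameter fit.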
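Wherever Relative cAMP EC50, hGLP-1R is given: intracellular cAMP rise after 30 min at 37 °C read by HTRF, normalized between buffer only (0%) and maximal control ligand (100%), four-parameter variable-slope fit.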
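Wherever Relative cAMP EC50, hGcgR is given: intracellular cAMP rise after 30 min at 37 °C, read by HTRF against a cAMP standard curve, scaled from buffer only (0%) to maximal control ligand response (100%).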

Chain of hGcgR (P47871 26-477): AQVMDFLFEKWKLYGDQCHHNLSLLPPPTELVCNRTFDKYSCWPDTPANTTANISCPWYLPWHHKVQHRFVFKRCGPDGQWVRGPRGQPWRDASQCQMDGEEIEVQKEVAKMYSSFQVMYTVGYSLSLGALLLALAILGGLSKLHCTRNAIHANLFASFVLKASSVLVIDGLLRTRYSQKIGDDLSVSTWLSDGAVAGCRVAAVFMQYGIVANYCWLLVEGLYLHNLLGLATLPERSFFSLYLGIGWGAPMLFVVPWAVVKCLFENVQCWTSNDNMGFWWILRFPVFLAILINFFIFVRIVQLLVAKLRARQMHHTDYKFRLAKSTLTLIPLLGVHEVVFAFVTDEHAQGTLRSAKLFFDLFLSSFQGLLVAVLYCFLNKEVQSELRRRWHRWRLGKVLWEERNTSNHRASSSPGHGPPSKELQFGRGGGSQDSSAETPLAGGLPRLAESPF
Chain of human GcgR (P47871 26-477): as above
T2 sequence (P43220 24-463): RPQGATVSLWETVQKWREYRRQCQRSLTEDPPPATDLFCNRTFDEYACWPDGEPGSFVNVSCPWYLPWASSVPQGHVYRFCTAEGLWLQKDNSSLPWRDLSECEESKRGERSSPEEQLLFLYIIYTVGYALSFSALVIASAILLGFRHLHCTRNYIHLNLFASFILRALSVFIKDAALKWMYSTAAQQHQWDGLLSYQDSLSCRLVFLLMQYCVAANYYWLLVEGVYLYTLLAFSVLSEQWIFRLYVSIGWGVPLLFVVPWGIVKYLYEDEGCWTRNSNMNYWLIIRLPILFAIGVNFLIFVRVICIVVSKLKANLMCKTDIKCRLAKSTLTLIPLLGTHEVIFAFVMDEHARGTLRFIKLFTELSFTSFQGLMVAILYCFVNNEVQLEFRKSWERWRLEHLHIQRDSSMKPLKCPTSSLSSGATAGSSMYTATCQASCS

As to `CC[C@H](C)[C@H](NC(=O)[C@H](Cc1ccccc1)NC(=O)[C@H](C)NC(=O)C(C)(C)NC(=O)[C@H](CCC(N)=O)NC(=O)[C@H](C)NC(=O)[C@H](CCCCNC(=O)CC[C@H](NC(=O)CC[C@H](NC(=O)CCCCCCCCCCCCCCCCC(=O)O)C(=O)O)C(=O)O)NC(=O)[C@H](CCCCN)NC(=O)[C@H](CC(=O)O)NC(=O)[C@H](CC(C)C)NC(=O)[C@](C)(CC(C)C)NC(=O)[C@@H](NC(=O)[C@H](CO)NC(=O)[C@H](Cc1ccncc1)NC(=O)[C@H](CC(=O)O)NC(=O)[C@H](CO)NC(=O)[C@@H](NC(=O)[C@](C)(Cc1ccccc1F)NC(=O)[C@@H](NC(=O)CNC(=O)[C@H](CCC(N)=O)NC(=O)C(C)(C)NC(=O)[C@@H](N)Cc1ccc(O)cc1)[C@@H](C)O)[C@@H](C)O)[C@@H](C)CC)C(=O)N[C@@H](CCC(=O)O)C(=O)N[C@@H](Cc1ccc(O)cc1)C(=O)N[C@@H](CC(C)C)C(=O)N[C@@H](CCC(=O)O)C(=O)N[C@@H](CCC(=O)O)C(=O)NCC(=O)NCC(=O)N1CCC[C@H]1C(=O)N[C@@H](CO)C(=O)N[C@@H](CO)C(=O)NCC(=O)N[C@@H](C)C(=O)N1CCC[C@H]1C(=O)N1CCC[C@H]1C(=O)N1CCC[C@H]1C(=O)N[C@@H](CO)C(N)=O` [Example 440] (H-Y[Aib]QGT[αMePhe(2-F)]TSD[4Pal]SI[αMeL]LDKK([γGlu-γGlu-C18 diacid])AQ[Aib]AFIEYLEEGGPSSGAPPPS-NH2), the EC50 at human GcgR is 830 nM; on hGIPR [1] it was 0.0226 nM; at hGcgR, 7.14 nM; on hGLP-1R [2], 0.467 nM; at hGLP-1R [3], 27.4 nM; at hGIPR [4], 1.81 nM.

Consider “H-Y[Aib]QGTFTSD[4Pal]SQ[αMeL]LDKK([AEEA-γGlu-C18 diacid])AQ[αMe4Pal]AFIEYLIE[Aib]GPSSGAPPPSGSGE [Example 889]”, for which the concentration for a half-maximal effect (EC50) on human GcgR amounted to 688 nM; on hGIPR [1] (setting [5]) it was 0.106 nM; on hGcgR (setting [5]) it was 4.09 nM; on hGLP-1R [2] (setting [5]), 5.06 nM; at hGLP-1R [3], 371 nM; at hGIPR [4], 21.6 nM.

On to “H-Y[Aib]QGTFTSD[4Pal]SK[αMeL]LDKK([AEEA-γGlu-C18 diacid])AQ[Aib]AFIE[αMe4Pal]LIE[Aib]GPSSGAPPPSGS-NH2 [Example 914]”, for which the concentration for a half-maximal effect (EC50) on human GcgR was determined as 983 nM; at hGIPR [1] (setting [5]), 0.0582 nM; on hGcgR (setting [5]) it was 10.6 nM; on hGLP-1R [2] (setting [5]) it was 0.888 nM; on hGLP-1R [3], 91.7 nM; on hGIPR [4], 5.94 nM.

For “H-Y[Aib]QGT[αMePhe(2-F)]TSD[4Pal][αMeS]I[αMeL]LD[Orn]K([γGlu-γGlu-C18 diacid])AQ[αMe4Pal]EFI[dE][αMeY]LIEGGPSSGAPPPSGSE-NH2 [Example 717]”, the EC50 on human GcgR stood at 130 nM; at hGIPR [1] it was 0.00721 nM; at hGcgR it was 1.14 nM; on hGLP-1R [2], 0.283 nM; on hGLP-1R [3], 21.4 nM; at hGIPR [4] it was 0.561 nM.

Take `CC[C@H](C)[C@H](NC(=O)[C@H](CC(C)C)NC(=O)[C@](C)(Cc1ccc(O)cc1)NC(=O)[C@H](CCC(=O)O)NC(=O)[C@@H](NC(=O)[C@H](Cc1ccccc1)NC(=O)[C@H](CCC(N)=O)NC(=O)[C@](C)(Cc1ccncc1)NC(=O)[C@H](CCC(N)=O)NC(=O)[C@H](C)NC(=O)[C@H](CCCCNC(=O)COCCOCCNC(=O)CC[C@H](NC(=O)CCCCCCCCCCCCCCCCC(=O)O)C(=O)O)NC(=O)[C@H](CCCN)NC(=O)[C@H](CC(=O)O)NC(=O)[C@H](CC(C)C)NC(=O)[C@](C)(CC(C)C)NC(=O)[C@H](CCC(N)=O)NC(=O)[C@H](CO)NC(=O)[C@H](Cc1ccncc1)NC(=O)[C@H](CC(=O)O)NC(=O)[C@H](CO)NC(=O)[C@@H](NC(=O)[C@H](Cc1ccccc1)NC(=O)[C@@H](NC(=O)CNC(=O)[C@H](CCC(N)=O)NC(=O)C(C)(C)NC(=O)[C@@H](N)Cc1ccc(O)cc1)[C@@H](C)O)[C@@H](C)O)[C@@H](C)CC)C(=O)N[C@@H](C)C(=O)NC(C)(C)C(=O)NCC(=O)N1CCC[C@H]1C(=O)N[C@@H](CO)C(=O)N[C@@H](CO)C(=O)NCC(=O)N[C@@H](C)C(=O)N1CCC[C@H]1C(=O)N1CCC[C@H]1C(=O)N1CCC[C@H]1C(=O)N[C@@H](CO)C(=O)NCC(=O)N[C@@H](CO)C(=O)N[C@@H](CCC(=O)O)C(=O)N[C@@H](CCC(=O)O)C(N)=O` [Example 1111]: the EC50 at human GcgR amounted to 299 nM; on hGIPR [1] (setting [5]) it was 0.0356 nM; at hGcgR (setting [5]), 5.28 nM; on hGLP-1R [2] (setting [5]), 1.14 nM; on hGLP-1R [3] it was 51.3 nM; on hGIPR [4], 3.66 nM.

Turning to “H-Y[Aib]QGTFTSD[4Pal]SQ[αMeL]LDKK([Glu-γGlu-C18 diacid])AQ[αMe4Pal]AFIEYLIAGGPSSGAPPPSGEEE-NH2 [Example 1089]”, the EC50 at human GcgR was determined as 2580 nM; at hGIPR [1] (setting [5]) it was 0.213 nM; at hGcgR (setting [5]), 14 nM; at hGLP-1R [2] (setting [5]), 2.96 nM; on hGLP-1R [3] it was 449 nM; at hGIPR [4] it was 34.6 nM.

Take “Y[Aib]QGTFTSD[4Pal]SQ[αMeL]LD[Orn]K([AEEA-γGlu-γGlu-C18 diacid])AQ[αMe4Pal]AFIEYLIE[dA]GPSSGAPPPSGS-NH2 [Example 1016]”: the concentration giving a half-maximal response (EC50) at human GcgR turned out to be 626 nM; at hGIPR [1] (setting [5]), 0.218 nM; at hGcgR (setting [5]) it was 5.57 nM; at hGLP-1R [2] (setting [5]), 1.55 nM; on hGLP-1R [3], 156 nM; on hGIPR [4] it was 30.6 nM.

In the case of “H-Y[Aib]QGT[αMePhe(2-F)]TSD[4Pal][αMeS]I[αMeL]LD[Orn]K([AEEA-γGlu-C18 diacid])AA[Aib]EFI[dE][αMeY]LVEGGPSSGAPPPSGS-NH2 [Example 693]”, the half-maximal effective concentration (EC50) was determined as 304 nM at human GcgR; 0.0104 nM at hGIPR [1]; 2.39 nM at hGcgR; 0.161 nM at hGLP-1R [2]; 18 nM at hGLP-1R [3]; 1.1 nM on hGIPR [4].

With “H-Y[Aib]QGT[αMePhe(2-F)]TSD[4Pal]SILLD[Orn]K([γGlu-γGlu-C18 diacid])AQ[Aib]AFIEYLQEGGPSSGEPPPSGTEE-NH2 [Example 583]”, the 50% effective concentration (EC50) on human GcgR is 1250 nM; at hGIPR [1] it was 0.0692 nM; on hGcgR it was 6.32 nM; on hGLP-1R [2] it was 0.542 nM; at hGLP-1R [3], 71 nM; on hGIPR [4], 12.3 nM.

Regarding “H-Y[Aib]QGTFTSD[4Pal]S[Orn][αMeL]LDKK([γGlu-γGlu-C18 diacid])AQ[Aib]AFIE[αMeY]LIEGGPSSGAPPPSGS-NH2 [Example 941]”, the half-maximal effective concentration (EC50) was 1430 nM on human GcgR; 0.183 nM on hGIPR [1] (setting [5]); 11.7 nM at hGcgR (setting [5]); 0.764 nM at hGLP-1R [2] (setting [5]); 113 nM on hGLP-1R [3]; 22.1 nM at hGIPR [4].

On to “H-Y[Aib]QGT[αMePhe(2-F)]TSD[4Pal]SI[αMeL]LD[Orn]K([AEEA-γGlu-C18 diacid])AQ[αMe4Pal][Orn]FI[dE][αMeY]LIEGGPSSGEPPPETE-NH2 [Example 678]”, for which the 50% effective concentration (EC50) was 245 nM at human GcgR; 0.0132 nM on hGIPR [1]; 2.28 nM on hGcgR; 0.251 nM on hGLP-1R [2]; 22.1 nM on hGLP-1R [3]; 0.929 nM at hGIPR [4].

Regarding `CC[C@H](C)[C@H](NC(=O)[C@H](Cc1ccccc1)NC(=O)[C@H](C)NC(=O)C(C)(C)NC(=O)[C@H](CCC(N)=O)NC(=O)[C@H](C)NC(=O)[C@H](CCCCNC(=O)COCCOCCNC(=O)CC[C@H](NC(=O)CCCCCCCCCCCCCCCCCCC(=O)O)C(=O)O)NC(=O)[C@H](CCCCN)NC(=O)[C@H](CC(=O)O)NC(=O)[C@H](CC(C)C)NC(=O)[C@](C)(CC(C)C)NC(=O)[C@H](CCCN)NC(=O)[C@H](CO)NC(=O)[C@H](Cc1ccccc1)NC(=O)[C@H](CC(=O)O)NC(=O)[C@H](CO)NC(=O)[C@@H](NC(=O)[C@H](Cc1ccccc1)NC(=O)[C@@H](NC(=O)CNC(=O)[C@H](CCC(N)=O)NC(=O)C(C)(C)NC(=O)[C@@H](N)Cc1ccc(O)cc1)[C@@H](C)O)[C@@H](C)O)C(=O)N[C@@H](CCC(=O)O)C(=O)N[C@@H](Cc1c[nH]c2ccccc12)C(=O)N[C@@H](CC(C)C)C(=O)N[C@@H](CC(C)C)C(=O)N[C@@H](CCC(=O)O)C(=O)NCC(=O)NCC(=O)N1CCC[C@H]1C(=O)N[C@@H](CO)C(=O)N[C@@H](CO)C(=O)NCC(=O)N[C@@H](C)C(=O)N1CCC[C@H]1C(=O)N1CCC[C@H]1C(=O)N1CCC[C@H]1C(=O)N[C@@H](CO)C(=O)NCC(=O)N[C@@H](CCC(=O)O)C(N)=O` [Example 100], the half-maximal effective concentration (EC50) at human GcgR worked out at 2390 nM; at hGIPR [1] (setting [5]), 0.293 nM; on hGcgR (setting [5]), 13.1 nM; at hGLP-1R [2] (setting [5]) it was 3.21 nM; at hGLP-1R [3], 1190 nM; at hGIPR [4] it was 77.2 nM.

For the origin of these results see patent publication US20240270821A1, “GIP/GLP1/GCG TRI-RECEPTOR AGONISTS AND USES THEREOF” (priority 2023, published 2024).
